Source: the supplement of paper PMC4858399

Assays:
Conditions in all cases: exposure time 48 h
[1] = tested on: Caenorhabditis elegans N2; experiment: mean nematode size ln(EXT) after 48 h, plate-adjusted (DMSO control set to 6) (ln(EXT), control-adjusted); higher = larger nematodes / less growth inhibition
In short: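 A growth model removed debris from Biosort extinction readings taken on each worm. These worms were synchronised C. elegans N2 L1 larvae, 50 per well in 4–6 wells per treatment, grown for 48 h at 20°C in K-medium with killed OP50, 1% DMSO and 0.5–200 µM chemical. Readings were natural-logged and averaged by well to give mean size. On each plate, the vehicle control mean was subtracted and 6 was added.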

[2] = tested on: Caenorhabditis elegans N2; experiment: AC50 for larval growth inhibition (Hill fit); higher = less potent
In short: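 Synchronised C. elegans N2 L1 larvae, 50 per well in 96-well plates, were grown at 20°C for 48 h in K-medium with killed OP50, 1% DMSO and 0.5–200 µM chemical. Worm size was read on a COPAS Biosort as extinction, log-transformed and averaged per well, and only wells holding at least 10 worms were kept. AC50 was obtained by a constrained Hill fit using weighted genetic-algorithm regression, with out-of-range values censored.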

[3] = tested on: Caenorhabditis elegans N2; experiment: lowest effective concentration for larval growth inhibition (size below effect threshold); higher = less potent
In short: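 Worm size was taken as per-worm extinction on the Biosort, log-transformed and turned into well means. The larvae (C. elegans N2, L1 stage, 50 per 96-well) had spent 48 h at 20°C in K-medium with killed bacteria, 1% DMSO and 0.5, 1, 5, 10, 50, 100 or 200 µM chemical. The lowest effective concentration marks the first dose where the plate-adjusted mean size drops under a cutoff and remains under it at every higher dose; the cutoff is 5.665.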

SMILES | mean nematode size ln(EXT) (ln) ([1]; 0.5 µM) | mean nematode size ln(EXT) (ln) ([1]; 1 µM) | mean nematode size ln(EXT) (ln) ([1]; 5 µM) | mean nematode size ln(EXT) (ln) ([1]; 10 µM) | mean nematode size ln(EXT) (ln) ([1]; 50 µM) | mean nematode size ln(EXT) (ln) ([1]; 100 µM) | mean nematode size ln(EXT) (ln) ([1]; 200 µM) | AC50 for larval growth inhibition [2] [µM] | lowest effective concentration [3] [µM]
CC(C)(O)c1coc(S(=O)(=O)NC(=O)Nc2c3c(cc4c2CCC4)CCC3)c1 | 5.93 | 6.15 | 6.24 | 6.2 | 6.09 | 5.98 | 5.63 | 111 | 200
CC(C)CCCCCCOC(=O)C1CCCCC1C(=O)OCCCCCCC(C)C (stereo not drawn) | 5.92 | 5.97 | 5.87 | 5.9 | 5.87 | 5.84 | 5.66 | > 200 | 200
CC(Cc1ccc(OCC(=O)O)cc1)NCC(O)c1csc(C(F)(F)F)n1 (stereo not drawn) | 5.86 | 5.88 | 5.84 | 6.03 | 5.84 | 5.89 | 5.4 | > 200 | 200
CCCOc1sc(C(=O)N2CCC(c3cc(CN)ccc3F)CC2)c(C)c1Br | 5.68 | 5.67 | 5.54 | 4.86 | 3.73 | 3.92 | – | 9.86 | 5
CC[C@H](C)[C@@H](C(=O)O)n1sc2ccccc2c1=O | 5.91 | 6.12 | 6.17 | 6.14 | 6.07 | 5.94 | 5.59 | 105 | 200
CC[C@H]1CC[C@H](NCc2cc3c(cc2OC)[C@H]2C[C@H]2C(=O)N3C)[C@H](c2ccccc2)N1 | 5.85 | 5.81 | 5.87 | 5.86 | 5.77 | 5.85 | 5.48 | > 200 | 200
CCc1nn(C2CCCCC2)c2cc(C3(C#N)CCC(C(=O)O)CC3)ccc12 (stereo not drawn) | 5.91 | 5.88 | 5.86 | 5.93 | 5.81 | 5.67 | 5.45 | > 200 | 200
CNCc1ccc(NC(=O)c2c[nH]c3c2C(=O)CCC3)cc1 | 5.9 | 6.14 | 6.21 | 6.19 | 6.15 | 6.09 | 5.65 | > 200 | 200
COc1cc(C(C)C)c2c(c1)S(=O)(=O)N(COc1cc(=O)n3cccc(OCCN4CCCCC4)c3n1)C2=O | 5.91 | 5.92 | 5.88 | 5.88 | 5.87 | 5.72 | 5.47 | > 200 | 200
Cc1cc(CCN2CCN(c3nsc4ccccc34)CC2)cc2c1NC(=O)CC2(C)C | 5.77 | 5.72 | 5.61 | 5.4 | 4.49 | 4.01 | 3.55 | 41.3 | 5
Cc1cc(NC(=O)C(=O)O)cc(C)c1Oc1ccc(O)c2c1CCC2 | 5.86 | 5.81 | 5.88 | 5.83 | 5.84 | 5.76 | 5.58 | > 200 | 200
